Results: ChEMBL document CHEMBL1806429, “Angiotensin-I-converting enzyme inhibitory peptides: Chemical feature based pharmacophore generation” (Eur J Med Chem, 2011)
Residues, ends and D or L forms follow the SMILES beside them.

What follows are molecules tested against T1, Angiotensin-converting enzyme (Oryctolagus cuniculus, UniProt P12822) (assay: Inhibition of rabbit lung ACE preincubated for 5 mins by spectrophotometric assay).
T1 sequence (P12822 whole entry): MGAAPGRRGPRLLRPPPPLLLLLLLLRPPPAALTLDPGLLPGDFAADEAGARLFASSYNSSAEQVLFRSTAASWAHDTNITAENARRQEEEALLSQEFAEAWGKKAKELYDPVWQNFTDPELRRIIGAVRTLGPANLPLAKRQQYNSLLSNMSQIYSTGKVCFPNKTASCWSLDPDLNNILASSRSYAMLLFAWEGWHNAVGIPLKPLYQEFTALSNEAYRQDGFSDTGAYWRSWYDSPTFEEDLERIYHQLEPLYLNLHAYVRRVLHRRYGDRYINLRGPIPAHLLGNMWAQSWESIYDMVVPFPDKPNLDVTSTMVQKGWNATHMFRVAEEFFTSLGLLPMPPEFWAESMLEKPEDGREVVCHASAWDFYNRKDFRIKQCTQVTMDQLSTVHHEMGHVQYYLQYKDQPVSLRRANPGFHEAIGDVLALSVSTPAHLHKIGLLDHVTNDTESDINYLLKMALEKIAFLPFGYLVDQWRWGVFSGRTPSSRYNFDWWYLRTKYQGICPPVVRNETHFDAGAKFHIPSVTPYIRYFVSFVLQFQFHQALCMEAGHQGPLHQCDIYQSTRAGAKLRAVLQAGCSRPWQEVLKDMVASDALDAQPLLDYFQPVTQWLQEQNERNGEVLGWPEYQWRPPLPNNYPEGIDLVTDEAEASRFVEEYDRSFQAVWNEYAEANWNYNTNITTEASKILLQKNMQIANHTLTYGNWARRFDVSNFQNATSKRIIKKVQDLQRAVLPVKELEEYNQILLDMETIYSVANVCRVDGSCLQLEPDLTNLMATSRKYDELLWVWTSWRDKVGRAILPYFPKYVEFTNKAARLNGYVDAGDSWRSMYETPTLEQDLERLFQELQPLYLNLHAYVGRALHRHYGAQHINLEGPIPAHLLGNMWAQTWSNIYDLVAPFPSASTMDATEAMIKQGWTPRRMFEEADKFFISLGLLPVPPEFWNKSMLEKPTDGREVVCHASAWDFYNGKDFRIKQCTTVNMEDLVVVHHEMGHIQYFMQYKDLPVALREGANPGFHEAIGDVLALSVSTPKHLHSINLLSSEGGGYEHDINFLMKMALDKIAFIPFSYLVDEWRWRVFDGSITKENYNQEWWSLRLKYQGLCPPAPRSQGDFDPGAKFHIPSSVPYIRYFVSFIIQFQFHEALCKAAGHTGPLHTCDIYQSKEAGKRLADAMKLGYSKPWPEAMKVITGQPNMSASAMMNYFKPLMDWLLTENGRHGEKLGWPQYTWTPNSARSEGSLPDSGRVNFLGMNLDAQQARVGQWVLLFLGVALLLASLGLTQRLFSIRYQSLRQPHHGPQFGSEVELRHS

| IC50 [µM] | SMILES |
| --- | --- |
| 2500 | C[C@H](N)C(=O)NCC(=O)O (H-Ala-Gly-OH) |
| 9000 | C[C@H](N)C(=O)N[C@@H](Cc1c[nH]cn1)C(=O)O (H-Ala-His-OH) |
| 300 | CC(C)[C@H](NC(=O)[C@H](C)N)C(=O)O (H-Ala-Val-OH) |
| 340 | CC(C)[C@H](NC(=O)[C@H](C)N)C(=O)N1CCC[C@H]1C(=O)O (H-Ala-Val-Pro-OH) |
| 16 | C[C@H](NC(=O)[C@@H](N)CCCNC(=N)N)C(=O)N1CCC[C@H]1C(=O)O (H-Arg-Ala-Pro-OH) |
| 248 | NC(N)=NCCC[C@H](N)C(=O)N[C@@H](CO)C(=O)N1CCC[C@H]1C(=O)O (H-Arg-Ser-Pro-OH) |
| 10 | CC(C)[C@H](NC(=O)[C@@H](N)Cc1ccccc1)C(=O)N[C@@H](C)C(=O)N1CCC[C@H]1C(=O)O (H-FVAP-OH) |
| 5400 | NCC(=O)N[C@@H](CCC(=O)O)C(=O)O (H-Gly-Glu-OH) |
| 5400 | NCCCC[C@H](NC(=O)CN)C(=O)O (H-Gly-Lys-OH) |
| 150 | CC[C@H](C)[C@H](N)C(=O)N1CCC[C@H]1C(=O)O (H-Ile-Pro-OH) |
| 3.7 | CC[C@H](C)[C@H](N)C(=O)N[C@@H](Cc1ccc(O)cc1)C(=O)O (H-Ile-Tyr-OH) |
| 0.7 | CC(C)C[C@H](N)C(=O)N[C@@H](C)C(=O)N1CCC[C@H]1C(=O)O (H-Leu-Ala-Pro-OH) |
| 81 | CC(C)C[C@H](N)C(=O)N[C@@H](CC(N)=O)C(=O)N[C@@H](Cc1ccc(O)cc1)C(=O)O (H-Leu-Asn-Tyr-OH) |
| 0.32 | CC(C)C[C@H](N)C(=O)N[C@@H](CCCCN)C(=O)N1CCC[C@H]1C(=O)O (H-Leu-Lys-Pro-OH) |
| 160 | NCCCC[C@H](NC(=O)CNC(=O)[C@@H](N)Cc1ccccc1)C(=O)O (H-Phe-Gly-Lys-OH) |
| 78 | N[C@@H](Cc1ccccc1)C(=O)N1CCC[C@H]1C(=O)N1CCC[C@H]1C(=O)O (H-Phe-Pro-Pro-OH) |
| 97.3 | O=C(NCC(=O)N1CCC[C@H]1C(=O)O)[C@@H]1CCCN1 (H-Pro-Gly-Pro-OH) |
| 36 | CC(C)C[C@H](NC(=O)[C@@H]1CCCN1)C(=O)N[C@@H](Cc1c[nH]c2ccccc12)C(=O)O (H-Pro-Leu-Trp-OH) |
| 427 | CC(C)C[C@H](NC(=O)[C@@H]1CCCN1C(=O)[C@@H]1CCCN1)C(=O)O (H-Pro-Pro-Leu-OH) |
| 220 | O=C(N[C@@H](Cc1ccc(O)cc1)C(=O)N1CCC[C@H]1C(=O)O)[C@@H]1CCCN1 (H-Pro-Tyr-Pro-OH) |
| 720 | N[C@@H](Cc1ccc(O)cc1)C(=O)N1CCC[C@H]1C(=O)O (H-Tyr-Pro-OH) |
| 2 | CC(C)[C@H](N)C(=O)N[C@@H](C)C(=O)N1CCC[C@H]1C(=O)O (H-Val-Ala-Pro-OH) |
| 7 | CC(C)[C@H](N)C(=O)N[C@@H](Cc1ccc(O)cc1)C(=O)O (H-Val-Tyr-OH) |

| SMILES | IC50 [µM] |
| --- | --- |
| N[C@@H](Cc1ccccc1)C(=O)N1CCC[C@H]1C(=O)O (H-Phe-Pro-OH) | 210 |
